Measured values as given in PMC9416253, “Automated Radiosynthesis, Preliminary In Vitro/In Vivo Characterization of OncoFAP-Based Radiopharmaceuticals for Cancer Imaging and Therapy” (Pharmaceuticals, 2022).
Where two headings read alike, the source gives them in different places. Values belong to the compound of their own block, whether it stands above or below them.

Key:
[1] = Lipophilicity by shake-flask method (n-octanol/saline or PBS); type: physicochemical; conditions: room temperature; for LogD7.4: n-octanol/PBS; for LogP: n-octanol/saline solution
Description: Lipophilicity was determined by partitioning between n-octanol and saline solution (LogP) or PBS (LogD7.4) at room temperature using the conventional shake-flask method. An aliquot of the formulated solution containing ~500 kBq of radiopharmaceuticals was added to a tube containing 6 mL of n-octanol/saline solution or n-octanol/PBS (1:1 v/v, LogP or LogD7.4, respectively). The tubes were shaken for 20 min, followed by centrifugation (5000× g for 5 min) and separation of the phases. Aliquots of 1 mL of the organic and the aqueous phases were taken, and the activity was measured using an automated gamma counter. The LogP or LogD7.4 were calculated as the decadic logarithm of [activity (cpm/mL) in n-octanol]/[(activity (cpm/mL) in saline solution or PBS].

[2] = target: FAP; design: method as in PMID 33850024; conditions: read-out: dissociation constant; cited from earlier work
[3] = system: SK-RC-52.hFAP cells; assay: Cell binding assay on FAP-positive SK-RC-52.hFAP cells; type: cell-based; conditions: 0.1 MBq, 37 °C, 1.5 × 10^5 cells each tube
Description: Cell binding assays were performed in triplicate on SK-RC-52.hFAP and SK-R-RC-52.wt cells (density of 1.5 × 10^5 cells each tube), growth in RPMI-1640 medium (Gibco) containing 10% Fetal Bovine Serum (Gibco) and 1% Antibiotic-Antimycotic (Gibco) at 37 °C in 5% carbon dioxide (CO2). After adding [^68Ga]Ga-DOTAGA-OncoFAP, [^177Lu]Lu-DOTAGA-OncoFAP or [^18F]AlF-NOTA-OncoFAP (10 µL, 0.1 MBq) to the culture medium, the cells were incubated at 37 °C for 10, 30, 60 min for ^68Ga-derivatives and 10, 30, 60, 120, 240 min for ^18F-derivatives or 10, 30, 60, 120, 240, 360 min and 24 and 48 h for the ^177Lu-derivative. As a control, nonspecific binding determination was carried out by incubating with the OncoFAP derivatives complex with the non-radioactive isotopes reference standard (100 µM) with the same cell lines for 5 min before incubation with the radiolabeled compounds. After incubation, the cell pellets were washed twice with 1 mL of cold PBS (pH 7.4), centrifuged (400× g, 5 min) and the pellet measured by an automatic gamma counter (WIZARD2, PerkinElmer, Waltham, MA, USA).

[4] = system: HT-1080.hFAP tumors; assay: In vivo biodistribution in mice bearing subcutaneous HT-1080.hFAP tumors
Description: Tumor cells were grown to 80% confluence in Dulbecco’s Modified Eagle Medium (DMEM) supplemented with 10% Fetal Bovine Serum (Thermofisher, Waltham, MA, USA) and 1% antibiotic-antimycotic (Gibco) and detached with Trypsin-EDTA 0.05%. HT-1080.hFAP, cells (FAP positive cells) were resuspended in Hanks’ Balanced Salt Solution medium. Aliquots of 5 × 10^6 cells (100 μL of suspension) were injected subcutaneously in the right flanks of female athymic Balb/c AnNRj-Foxn1 mice (6 to 8 weeks of age, Janvier-labs, Le Genest-Saint-Isle, France). Female athymic Balb/c AnNRj-Foxn1 mice (6 to 8 weeks of age) were implanted in the right flank with HT-1080.hFAP tumors as described above. Tumors were allowed to grow to an average volume of 250 mm^3. Mice were randomized (n = 5 per group) and injected intravenously with radiolabeled preparations of [^18F]AlF-NOTA-OncoFAP (10 nmol/mice; 77 kBq; RCP:89%). Mice were euthanized 1 h after the injection by CO2 asphyxiation. Organs were extracted, weighted, and radioactivity was measured with a Packard Cobra Gamma Counter. Values are expressed as percent ID/g ± SD.

[5] = target: hCAIX (Homo sapiens, UniProt Q16790); assay: Co-elution experiment with hCAIX (non-target protein) on PD-10 columns; type: binding; conditions: PD-10 column
Description: NODAGA-OncoFAP labeling with 177Lu and characterization
Figure S1. (A) Radiolabeling reaction scheme of OncoFAP-NODAGA with 177Lu in acetate buffer (pH=4) at 95°C for 15 min. (B) Coelution experiment of [177Lu]Lu-NODAGA-OncoFAP-with hFAP and hCAIX on PD-10 size exclusion chromatography columns. (C) Radio-HPLC analysis performed after labeling reaction.
NODAGA-OncoFAP can be efficiently labeled with 177Lu by heating at 95°C in acetate buffer (pH=4) for 15 min. [Figure S1A] […]
been observed. [Figure S1C] […]

[6] = target: T1, recombinant hFAP (Homo sapiens, UniProt Q12884); assay: Co-elution experiment with recombinant hFAP on PD-10 size exclusion columns; type: binding; conditions: 500 kBq radioligand, hFAP 2 μM 100 μL, PD-10 column
T1 sequence (Q12884 1-760): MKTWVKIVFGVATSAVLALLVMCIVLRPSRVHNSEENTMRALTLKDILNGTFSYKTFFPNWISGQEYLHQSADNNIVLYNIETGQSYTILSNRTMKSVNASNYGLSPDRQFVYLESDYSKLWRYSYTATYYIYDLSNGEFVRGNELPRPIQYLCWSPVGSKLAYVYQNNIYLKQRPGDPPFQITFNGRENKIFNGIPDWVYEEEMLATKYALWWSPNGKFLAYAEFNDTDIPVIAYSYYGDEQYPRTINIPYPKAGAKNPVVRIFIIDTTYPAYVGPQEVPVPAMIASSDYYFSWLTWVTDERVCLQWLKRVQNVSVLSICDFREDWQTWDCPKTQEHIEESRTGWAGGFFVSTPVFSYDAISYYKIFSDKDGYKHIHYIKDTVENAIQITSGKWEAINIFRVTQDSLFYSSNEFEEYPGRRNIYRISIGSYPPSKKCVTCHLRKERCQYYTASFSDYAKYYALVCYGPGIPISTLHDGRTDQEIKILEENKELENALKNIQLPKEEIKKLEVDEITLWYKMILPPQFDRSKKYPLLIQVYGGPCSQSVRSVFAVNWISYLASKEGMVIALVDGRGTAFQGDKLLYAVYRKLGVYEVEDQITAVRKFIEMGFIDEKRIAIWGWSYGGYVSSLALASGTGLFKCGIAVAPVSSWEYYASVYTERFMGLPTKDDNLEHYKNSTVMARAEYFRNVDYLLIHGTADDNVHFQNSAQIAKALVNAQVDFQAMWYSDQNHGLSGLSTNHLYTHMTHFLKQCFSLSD
Description: To assess the binding properties of radiolabeled OncoFAP-derivatives preparations to hFAP, [^68Ga]/[^18F]AlF/[^177Lu]-OncoFAP derivatives (500 kBq) were incubated with hFAP (2 μM, 100 μL) and then loaded on PD-10 columns, pre-equilibrated with running buffer (50 mM Tris, 100 mM NaCl, and 1 mM ethylenediaminetetraacetic acid [EDTA], pH = 7.4) and eluted with running buffer. Fractions of the flow through (500 μL) were collected, and the radioactivity intensity was measured immediately on a gamma counter (λ = 511 KeV for gallium-68 and fluorine-18 and λ = 208 KeV for lutetium-177).

[7] = system: FAP-positive tumor; design: method as in PMID 35589404; conditions: cited from earlier work
[8] = In vitro stability in saline solution (bulk solution), HPLC/iTLC; type: physicochemical
Description: The in vitro stability of the radiopharmaceuticals preparations in saline solution was evaluated on the bulk solution i.e., with the highest radioactive concentration. In addition, the in vitro stability of radiopharmaceutical preparations was tested by incubating 10 MBq of each radiolabeled compounds in 1 mL of human plasma at 37 °C. Small aliquots of bulk solution were analyzed by HPLC and iTLC and 10 µL of plasma solution were analyzed by iTLC at 30, 60, 90, 120, 150 and 180 min for [^68Ga]Ga-DOTAGA/NODAGA-OncoFAP derivatives, 50, 100, 150 and 200-min for [^18F]AlF-NOTA/NODAGA-OncoFAP or 1, 3, 6, 12, 24, and 2, 3, 4, 7 and 9 days for [^177Lu]Lu-DOTAGA-OncoFAP, as show in Figure 3.

[9] = system: FAP-expressing tumor models; design: method as in PMID 34957527; conditions: cited from earlier work
[10] = 1-h time point, 500 nmol/kg i.v.

SMILES: N#C[C@@H]1CC(F)(F)CN1C(=O)CNC(=O)c1ccnc2c(NC(=O)CCC(=O)O)cccc12 [OncoFAP]
Kd [2]: 0.68 nM

SMILES: N#C[C@@H]1CC(F)(F)CN1C(=O)CNC(=O)c1ccnc2c(NC(=O)CCC(=O)N3CCN(C(=O)CN4CCN(CC(=O)[O-])CCN(CC(=O)[O-])CC4)CC3)cccc12.[18F][Al+2] [[^18F]AlF-NOTA-OncoFAP]
absolute binding value [3]: 0.25%
LogD7.4 [1]: -2.01± 0.25
LogP [1]: -2.15± 0.18
tumor-to-blood ratio [4, 10]: 6.5
tumor-to-kidney ratio [4, 10]: 4.3
tumor accumulation ([4]; 1 h post intravenous injection, 500 nmol/kg, HT-1080.hFAP): 6.6 % ID/g

SMILES: N#C[C@@H]1CC(F)(F)CN1C(=O)CNC(=O)c1ccnc2c(NC(=O)CCC(=O)NCCNC(=O)CCC(C(=O)O)N3CCN(CC(=O)[O-])CCN(CC(=O)[O-])CC3)cccc12.[18F][Al+2] (stereo partly shown) [[^18F]AlF-NODAGA-OncoFAP]
LogD7.4 [1]: -2.88±0.16
LogP [1]: -3.02± 015

SMILES: N#C[C@@H]1CC(F)(F)CN1C(=O)CNC(=O)c1ccnc2c(NC(=O)CCC(=O)NCCNC(=O)CCC(C(=O)[O-])N3CCN(CC(=O)[O-])CCN(CC(=O)[O-])CC3)cccc12.[177Lu+3] (stereo partly shown) [[177Lu]Lu-NODAGA-OncoFAP]
interaction with hCAIX (co-elution) [5]: no significant interaction
complex formation with recombinant hFAP (co-elution) [6]: strong affinity

SMILES: N#C[C@@H]1CC(F)(F)CN1C(=O)CNC(=O)c1ccnc2c(NC(=O)CCC(=O)NCCNC(=O)CCC(C(=O)O)N3CCN(CC(=O)[O-])CCN(CC(=O)[O-])CCN(CC(=O)[O-])CC3)cccc12.[68Ga+3] (stereo partly shown) [[^68Ga]Ga-DOTAGA-OncoFAP]
complex formation with recombinant hFAP (co-elution) [6]: forms a stable complex
LogD7.4 [1]: -2.39 ± 0.12
LogP [1]: -2.57± 0.15
tumor-to-blood ratio ([9]; at 1 h p.i.): 8.6 ± 5.1
tumor-to-blood ratio ([9]; at 3 h p.i.): 38.1 ± 33.1

Further lines, with some results ahead:

LogD7.4 [1]: -2.48± 0.09
LogP [1]: -2.68± 0.14
SMILES: N#C[C@@H]1CC(F)(F)CN1C(=O)CNC(=O)c1ccnc2c(NC(=O)CCC(=O)NCCNC(=O)CCC(C(=O)[O-])N3CCN(CC(=O)[O-])CCN(CC(=O)[O-])CC3)cccc12.[68Ga+3] (stereo partly shown) [[^68Ga]Ga-NODAGA-OncoFAP]

LogD7.4 [1]: -2.19± 0.11
LogP [1]: -2.38± 0.11
SMILES: N#C[C@@H]1CC(F)(F)CN1C(=O)CNC(=O)c1ccnc2c(NC(=O)CCC(=O)N3CCN(C(=O)CN4CCN(CC(=O)[O-])CCN(CC(=O)[O-])CC4)CC3)cccc12.[68Ga+3] [[^68Ga]Ga-NOTA-OncoFAP]

LogD7.4 [1]: -1.85± 0.05
LogP [1]: -2.01± 0.08
radiolysis ([8]; every 24 h, without gentisic acid): about 10%
stability at high radioactive concentrations ([8]; in words, without stabilizer): intrinsic instability
radiolysis ([8]; within 8 days, with addition of 20 mg of gentisic acid as radical scavenger): about 2%
SMILES: N#C[C@@H]1CC(F)(F)CN1C(=O)CNC(=O)c1ccnc2c(NC(=O)CCC(=O)NCCNC(=O)CCC(C(=O)O)N3CCN(CC(=O)[O-])CCN(CC(=O)[O-])CCN(CC(=O)[O-])CC3)cccc12.[177Lu+3] (stereo partly shown) [[^177Lu]Lu-DOTAGA-OncoFAP]
uptake in the FAP-positive tumor ([7]; 10 min after injection): 32 % injected dose [ID]/g
tumor uptake ([7]; at 24 h p.i.): ~ 4 % ID/g
sustained uptake in the lesions ([7]; over the first 6 h time window): higher than 20 % ID/g
